Patent US20250051344A1, “BIFUNCTIONAL SELECTIVE DEGRADERS OF SMARCA2 AND THERAPEUTIC USES THEREOF” (Nurix Therapeutics, Inc., priority 2023, published 2025)

How the values were obtained:
SMARCA2 = molecular target: T1, SMARCA2 (Homo sapiens, UniProt P51531); experiment: SMARCA2 Cellular Degradation Assay (Western blot analysis on Jess platform); type: cell-based; conditions: for DC50 / Dmax: cellular degradation; for Fold Selectivity SMARCA4/2: ratio DC50 SMARCA4 / DC50 SMARCA2
T1 construct: endogenous in cells
Outline: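 Readout: Jess Simple Western of tumor-extracted cell lysates, SMARCA2 area over actin area after background subtraction, shown as percentage of vehicle control.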

SMARCA4 = molecular target: T2, SMARCA4 (Homo sapiens, UniProt P51532); experiment: Cellular degradation assay, SMARCA4 (Table 1); type: cell-based
T2 construct: endogenous in cells
T2 sequence (P51532 whole entry, species assumed): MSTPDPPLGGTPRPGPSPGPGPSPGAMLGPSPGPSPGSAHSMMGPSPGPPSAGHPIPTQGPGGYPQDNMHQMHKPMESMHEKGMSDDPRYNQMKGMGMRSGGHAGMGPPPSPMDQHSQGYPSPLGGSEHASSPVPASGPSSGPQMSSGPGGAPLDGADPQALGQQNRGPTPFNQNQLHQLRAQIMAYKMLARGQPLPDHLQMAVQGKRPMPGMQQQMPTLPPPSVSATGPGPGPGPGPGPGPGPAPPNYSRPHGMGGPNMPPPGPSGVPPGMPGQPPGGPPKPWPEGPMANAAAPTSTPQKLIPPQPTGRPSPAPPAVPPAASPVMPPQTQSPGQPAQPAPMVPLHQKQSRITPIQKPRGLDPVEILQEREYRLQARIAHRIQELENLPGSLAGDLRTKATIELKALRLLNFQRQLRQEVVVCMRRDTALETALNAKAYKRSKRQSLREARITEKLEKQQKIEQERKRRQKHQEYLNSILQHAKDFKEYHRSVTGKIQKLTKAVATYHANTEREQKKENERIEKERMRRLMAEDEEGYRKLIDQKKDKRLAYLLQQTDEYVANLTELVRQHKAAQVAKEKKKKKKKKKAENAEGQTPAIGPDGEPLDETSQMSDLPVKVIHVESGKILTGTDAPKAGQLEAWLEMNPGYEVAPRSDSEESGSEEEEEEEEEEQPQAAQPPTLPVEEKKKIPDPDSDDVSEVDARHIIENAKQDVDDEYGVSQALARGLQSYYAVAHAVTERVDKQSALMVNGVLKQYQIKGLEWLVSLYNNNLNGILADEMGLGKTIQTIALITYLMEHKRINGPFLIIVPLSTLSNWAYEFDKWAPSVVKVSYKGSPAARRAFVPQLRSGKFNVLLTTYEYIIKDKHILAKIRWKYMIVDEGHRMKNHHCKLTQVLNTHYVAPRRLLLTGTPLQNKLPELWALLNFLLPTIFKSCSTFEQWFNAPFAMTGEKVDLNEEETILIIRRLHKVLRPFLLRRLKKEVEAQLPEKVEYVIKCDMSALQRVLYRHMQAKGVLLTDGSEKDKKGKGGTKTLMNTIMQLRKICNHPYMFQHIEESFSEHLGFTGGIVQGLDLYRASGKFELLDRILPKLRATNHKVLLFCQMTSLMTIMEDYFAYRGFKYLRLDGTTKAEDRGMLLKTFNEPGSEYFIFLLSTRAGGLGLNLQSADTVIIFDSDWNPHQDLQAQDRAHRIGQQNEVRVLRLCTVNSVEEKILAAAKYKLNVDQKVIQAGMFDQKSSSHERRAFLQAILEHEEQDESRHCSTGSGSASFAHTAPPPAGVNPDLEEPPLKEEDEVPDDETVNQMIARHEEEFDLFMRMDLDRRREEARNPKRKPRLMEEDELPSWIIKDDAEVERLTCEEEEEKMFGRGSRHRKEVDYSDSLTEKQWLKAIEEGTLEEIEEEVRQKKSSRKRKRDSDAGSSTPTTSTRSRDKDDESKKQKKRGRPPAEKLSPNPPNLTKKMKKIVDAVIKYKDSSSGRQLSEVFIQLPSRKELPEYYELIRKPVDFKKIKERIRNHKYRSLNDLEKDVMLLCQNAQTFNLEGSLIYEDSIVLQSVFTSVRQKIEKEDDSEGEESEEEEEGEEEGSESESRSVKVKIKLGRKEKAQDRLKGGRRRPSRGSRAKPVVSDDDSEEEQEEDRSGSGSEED

T1 sequence (P51531 whole entry, species assumed): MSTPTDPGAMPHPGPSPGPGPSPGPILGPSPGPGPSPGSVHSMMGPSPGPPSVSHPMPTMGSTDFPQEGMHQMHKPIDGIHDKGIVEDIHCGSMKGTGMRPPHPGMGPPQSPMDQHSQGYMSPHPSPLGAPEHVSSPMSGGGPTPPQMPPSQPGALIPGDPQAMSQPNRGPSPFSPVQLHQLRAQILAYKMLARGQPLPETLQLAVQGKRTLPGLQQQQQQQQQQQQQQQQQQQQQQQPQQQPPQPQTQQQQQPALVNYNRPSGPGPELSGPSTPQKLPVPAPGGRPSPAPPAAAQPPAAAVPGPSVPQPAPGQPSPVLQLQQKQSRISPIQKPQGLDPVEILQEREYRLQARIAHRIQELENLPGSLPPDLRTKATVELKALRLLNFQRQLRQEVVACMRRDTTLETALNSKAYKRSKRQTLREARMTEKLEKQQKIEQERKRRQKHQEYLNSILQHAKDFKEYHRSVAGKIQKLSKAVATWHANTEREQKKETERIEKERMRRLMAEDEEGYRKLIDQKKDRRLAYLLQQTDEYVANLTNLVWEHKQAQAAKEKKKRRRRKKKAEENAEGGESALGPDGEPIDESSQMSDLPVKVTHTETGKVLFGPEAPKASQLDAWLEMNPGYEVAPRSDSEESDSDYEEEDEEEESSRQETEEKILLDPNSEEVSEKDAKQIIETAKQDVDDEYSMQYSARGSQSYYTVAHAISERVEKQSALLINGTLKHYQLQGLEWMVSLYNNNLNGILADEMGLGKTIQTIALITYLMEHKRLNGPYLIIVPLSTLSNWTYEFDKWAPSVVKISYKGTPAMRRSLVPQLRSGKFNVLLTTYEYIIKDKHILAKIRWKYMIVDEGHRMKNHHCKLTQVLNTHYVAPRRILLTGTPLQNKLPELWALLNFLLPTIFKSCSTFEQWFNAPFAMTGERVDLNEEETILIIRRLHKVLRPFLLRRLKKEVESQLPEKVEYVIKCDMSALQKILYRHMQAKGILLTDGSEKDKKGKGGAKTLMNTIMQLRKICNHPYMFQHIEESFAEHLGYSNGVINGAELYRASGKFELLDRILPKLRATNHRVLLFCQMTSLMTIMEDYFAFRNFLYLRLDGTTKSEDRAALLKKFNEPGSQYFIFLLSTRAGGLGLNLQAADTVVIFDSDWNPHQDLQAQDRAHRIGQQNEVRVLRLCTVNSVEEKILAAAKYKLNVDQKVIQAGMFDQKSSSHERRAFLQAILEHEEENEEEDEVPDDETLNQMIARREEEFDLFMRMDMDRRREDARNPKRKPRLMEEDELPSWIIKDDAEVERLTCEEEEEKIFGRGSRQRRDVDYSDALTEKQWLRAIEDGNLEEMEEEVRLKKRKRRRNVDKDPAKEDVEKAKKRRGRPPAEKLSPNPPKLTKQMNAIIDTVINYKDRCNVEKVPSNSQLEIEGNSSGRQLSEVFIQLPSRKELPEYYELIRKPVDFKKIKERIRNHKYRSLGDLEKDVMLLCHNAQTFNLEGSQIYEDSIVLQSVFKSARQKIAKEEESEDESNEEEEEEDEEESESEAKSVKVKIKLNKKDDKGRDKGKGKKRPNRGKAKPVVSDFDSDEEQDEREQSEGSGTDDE

Row | SMILES | DC50 (SMARCA2) [nM] | Dmax (SMARCA2) [%] | Fold Selectivity SMARCA4/2 (SMARCA2) | Dmax (SMARCA4) [%] | DC50 (SMARCA4) [nM]
1 | O=C1CC[C@H](NC(=O)c2ccc(N3CCC(CN4CCC(NC(=O)C5(c6ccccc6)CCN(c6cnnc(-c7ccccc7O)c6)CC5)CC4)CC3)nc2)C(=O)N1 [Example 156, N-[(3S)-2,6-dioxopiperidin-3-yl]-6-{4-[(4-{l-[6-(2-hydroxyphenyl)pyridazin-4-yl]-4-phenylpiperidine-4-amido}piperidin-1-yl)methyl]piperidin-1-yl}pyridine-3-carboxamide] | 38.5 | 63.2 | 260 | 36 | 
2 | O=C1CC[C@@H](c2ccc(N3CCC(CN4CC5(C4)CN(C(=O)C4(c6ccccc6)CCN(c6cnnc(-c7ccccc7O)c6)CC4)C5)CC3)cc2)C(=O)N1 [Example 8, (3S)-3-(4-{4-[(6-{1-[6-(2-hydroxyphenyl)pyridazin-4-yl]-4-phenylpiperidine-4-carbonyl}-2,6-diazaspiro[3.3]heptan-2-yl)methyl]piperidin-1-yl}phenyl)piperidine-2,6-dione] | 41.4 | 75.1 | 241.66 | 44.6 | 
3 | O=C1CC[C@H](c2ccc(N3CCC(CN4CC5(C4)CN(C(=O)C4(c6ccccc6)CCN(c6cnnc(-c7ccccc7O)c6)CC4)C5)CC3)cc2)C(=O)N1 [Example 15, (3R)-3-(4-{4-[(6-{1-[6-(2-hydroxyphenyl)pyridazin-4-yl]-4-phenylpiperidine-4-carbonyl}-2,6-diazaspiro[3.3]heptan-2-yl)methyl]piperidin-1-yl}phenyl)piperidine-2,6-dione] | 14.8 | 79.9 | 340.31 | 49.3 | 5030
4 | CC1(CN2CCC(c3ccc(C4CCC(=O)NC4=O)cc3)CC2)CCN(C(=O)C2(c3ccccc3)CCN(c3cnnc(-c4ccccc4O)c3)CC2)C1 (racemic) [Example 176, rac-(3R)-3-(4-{1-[(1-{1-[6-(2-hydroxyphenyl)pyridazin-4-yl]-4-phenylpiperidine-4-carbonyl}-3-methylpyrrolidin-3-yl)methyl]piperidin-4-yl}phenyl)piperidine-2,6-dione] | 22.3 | 76.8 | 449 | 53 | 
5 | O=C1CC[C@H](c2ccc(N3CCC(CN4CC(F)(F)C5(C4)CN(C(=O)C4(c6ccccc6)CCN(c6cnnc(-c7ccccc7O)c6)CC4)C5)CC3)cc2)C(=O)N1 [Example 52, (3R)-3-(4-{4-[(8,8-difluoro-2-{1-[6-(2-hydroxyphenyl)pyridazin-4-yl]-4-phenylpiperidine-4-carbonyl}-2,6-diazaspiro[3.4]octan-6-yl)methyl]piperidin-1-yl}phenyl)piperidine-2,6-dione] |  | 44 | 1 | 13.7 | 
6 | Cc1ccccc1OC1(C(=O)N(C)C2CCN(C(=O)CN3CCC(c4ccc([C@@H]5CCC(=O)NC5=O)cc4)CC3)CC2)CCN(c2cnnc(-c3ccccc3O)c2)CC1 (racemic) [Example 116, rac-n-(1-(2-(4-(4-(2,6-dioxopiperidin-3-yl)phenyl)piperidin-1-yl)acetyl)piperidin-4-yl)-1-(6-(2-hydroxyphenyl)pyridazin-4-yl)-n-methyl-4-(o-tolyloxy)piperidine-4-carboxamide] | 7.97 | 88.6 | 7 | 75.8 | 57.4
7 | CN(C(=O)C1(c2cc3ccccn3n2)CCN(c2cnnc(-c3ccccc3O)c2)CC1)C1CCN(CCC2CCN(c3ccc(C4CCC(=O)NC4=O)cc3)CC2)CC1 (racemic) [Example 77, rac-N-{1-[2-(1-{4-[(3R)-2,6-dioxopiperidin-3-yl]phenyl}piperidin-4-yl)ethyl]piperidin-4-yl}-1-[6-(2-hydroxyphenyl)pyridazin-4-yl]-N-methyl-4-{pyrazolo[1,5-a]pyridin-2-yl}piperidine-4-carboxamide] | 4.12 | 87 | 2427 | 44.2 | 
8 | Cc1cccc(C2(C(=O)N3CC4(CN(CC5CCN(c6ccc(C7CCC(=O)NC7=O)cc6)CC5)C4)C3)CCN(c3cnnc(-c4ccccc4O)c3)CC2)c1 (racemic) [Example 43, rac-(3R)-3-(4-{4-[(6-{1-[6-(2-hydroxyphenyl)pyridazin-4-yl]-4-(3-methylphenyl)piperidine-4-carbonyl}-2,6-diazaspiro[3.3]heptan-2-yl)methyl]piperidin-1-yl}phenyl)piperidine-2,6-dione] | 11.9 | 78.5 | 6.99 | 59.3 | 83.4
9 | O=C1CCC(c2ccc(N3CCC(C(=O)N4CC5(C4)CN(C(=O)C4(c6ccccc6)CCN(c6cnnc(-c7ccccc7O)c6)CC4)C5)CC3)cc2)C(=O)N1 (racemic) [Example 20, rac-(3R)-3-{4-[4-(6-{1-[6-(2-hydroxyphenyl)pyridazin-4-yl]-4-phenylpiperidine-4-carbonyl}-2,6-diazaspiro[3.3]heptane-2-carbonyl)piperidin-1-yl]phenyl}piperidine-2,6-dione] | 24.6 | 67.5 | 406.6 | 48.3 | 
10 | O=C1CC[C@@H](c2ccc(OCC3CCN(CC4CCN(C(=O)C5(c6ccccc6)CCN(c6cnnc(-c7ccccc7O)c6)CC5)CC4)CC3)cc2)C(=O)N1 [Example 35, (3S)-3-[4-({1-[(1-{1-[6-(2-hydroxyphenyl)pyridazin-4-yl]-4-phenylpiperidine-4-carbonyl}piperidin-4-yl)methyl]piperidin-4-yl}methoxy)phenyl]piperidine-2,6-dione] | 80.5 | 57 | 124.30 | 22.6 | 
11 | O=C1CCC(c2ccc(N3C[C@H]4CN(CC(=O)N5CCC6(CC5)CN(C(=O)C5(c7ccccc7)CCN(c7cnnc(-c8ccccc8O)c7)CC5)C6)C[C@@H]4C3)cc2)C(=O)N1 (mixture of isomers) [Example 150, (3RS)-3-{4-[(3aR,6aR)-5-[2-(2-{1-[6-(2-hydroxyphenyl)pyridazin-4-yl]-4-phenylpiperidine-4-carbonyl}-2,7-diazaspiro[3.5]nonan-7-yl)-2-oxoethyl]-octahydropyrrolo[3,4-c]pyrrol-2-yl]phenyl}piperidine-2,6-dione] | 22.6 | 73.9 | 442 | 50.6 | 
12 | O=C1CC[C@@H](c2ccc(N3CCC(CN4CCC(NCC5(c6ccccc6)CCN(c6cnnc(-c7ccccc7O)c6)CC5)CC4)CC3)cc2)C(=O)N1 [Example 135, (s)-3-(4-(4-((4-(((1-(6-(2-hydroxyphenyl)pyridazin-4-yl)-4-phenylpiperidin-4-yl)methyl)amino)piperidin-1-yl)methyl)piperidin-1-yl)phenyl)piperidine-2,6-dione] | 20.7 | 74.2 | 9 | 61.9 | 191
13 | O=C1CCC(c2ccc(N3CCC4(CC3)CC(CN3CC5(CCN(C(=O)C6(c7ccccc7)CCN(c7cnnc(-c8ccccc8O)c7)CC6)CC5)C3)C4)cc2)C(=O)N1 (racemic) [Example 137, rac-(3R)-3-(4-{2-[(7-{1-[6-(2-hydroxyphenyl)pyridazin-4-yl]-4-phenylpiperidine-4-carbonyl}-2,7-diazaspiro[3.5]nonan-2-yl)methyl]-7-azaspiro[3.5]nonan-7-yl}phenyl)piperidine-2,6-dione] | 44.4 | 66.3 | 225 | 44.9 | 
14 | O=C1CCC(c2ccc(N3CCC(CN4CC5(C4)CN(C(=O)C4(c6cccnc6)CCN(c6cnnc(-c7ccccc7O)c6)CC4)C5)CC3)cc2)C(=O)N1 (racemic) [Example 34, rac-(3R)-3-(4-{4-[(6-{1-[6-(2-hydroxyphenyl)pyridazin-4-yl]-4-(pyridin-3-yl)piperidine-4-carbonyl}-2,6-diazaspiro[3.3]heptan-2-yl)methyl]piperidin-1-yl}phenyl)piperidine-2,6-dione] | 47 | 58.6 | 212.72 | 30.6 | 
15 | O=C1CCC(c2ccc(N3CCN(C(=O)CCCN4CCN(C(=O)C5(c6ccccc6)CCN(c6cnnc(-c7ccccc7O)c6)CC5)CC4)CC3)cc2)C(=O)N1 (racemic) [Example 22, rac-(3R)-3-(4-{4-[4-(4-{1-[6-(2-hydroxyphenyl)pyridazin-4-yl]-4-phenylpiperidine-4-carbonyl}piperazin-1-yl)butanoyl]piperazin-1-yl}phenyl)piperidine-2,6-dione] |  | 30.5 | 1 | 20.6 | 
16 | O=C1CC[C@H](c2ccc(N3CCC(CN4CC5(CCN(C(=O)C6(c7ccccc7)CCN(c7cnnc(-c8ccccc8O)c7)CC6)C5)C4)CC3)cc2)C(=O)N1 [Example 16, (3R)-3-(4-{4-[(6-{1-[6-(2-hydroxyphenyl)pyridazin-4-yl]-4-phenylpiperidine-4-carbonyl}-2,6-diazaspiro[3.4]octan-2-yl)methyl]piperidin-1-yl}phenyl)piperidine-2,6-dione] | 7.48 | 82.6 | 671.32 | 56.1 | 5020
17 | O=C1CCC(Nc2ccc(C3CCN(CC4CCC45CN(C(=O)C4(c6ccccc6)CCN(c6cnnc(-c7ccccc7O)c6)CC4)C5)CC3)cc2)C(=O)N1 (racemic) [Example 177, rac-(3R)-3-[(4-{1-[(2-{1-[6-(2-hydroxyphenyl)pyridazin-4-yl]-4-phenylpiperidine-4-carbonyl}-2-azaspiro[3.3]heptan-5-yl)methyl]piperidin-4-yl}phenyl)amino]piperidine-2,6-dione] | 3.53 | 71.5 | 6 | 54.5 | 21.6
